The record followed here is US9340573B2, “Azaindolines” (Hoffmann-La Roche Inc., priority 2012, dated 2016).

For orientation: IC50 means the concentration that gives 50% inhibition.

One experiment addresses BIR3 domain of XIAP (Homo sapiens (Human), UniProt P98170). Put plainly: TR-FRET assay for BIR3: inhibition of binding of the XIAP BIR3 domain to Peptide A (SMAC-derived peptide). The procedure:
(§1) TR-FRET Assay for BIR2 and BIR3
(§2) The ability of a test compound to inhibit the binding of BIR2 and/or BIR3 domains of the XIAP protein to Peptide A (a SMAC-derived peptide described below) evidences that the test compound acts as a SMAC-mimetic resulting in reactivation of a cell's apoptotic pathway.
(§3) The peptides were labeled with the fluorescent tags FITC or TAMRA and Kd values were determined by fluorescence polarization assay. […] The peptide sequence was derivatized with biotin to provide […]-(ε-biotin)-OH 1:2 TFA as the substrate for the TR-FRET assay.
The sequence of the BIR3 domain used for the TR-FRET assay is […]
(§4) Ten nanomolar of 6× Histidine-tagged BIR2 domain, corresponding to amino acids 124-240 of XIAP, or BIR3 domain, corresponding to amino acids 241-356 of XIAP, was mixed with 20 nM of the peptide […]-(ε-biotin)-OH 1:2 TFA, in the presence of 50 mM Tris-Cl, pH 7.5, 100 mM NaCl, 1 mM dithiothreitol (DTT) and 0.1 mg/mL bovine serum albumin (BSA). Following a […] incubation at 37° C., Europium-Streptavidin and Allophycocyanin conjugated anti-Histidine antibody were added to a final concentration of 1.5 nM and 15 nM, respectively. Time-resolved fluorescence resonance energy transfer (TR-FRET) signals were measured 1 hour later at room temperature. Test compound potency was assessed at 10 serially diluted concentrations. Percentage of inhibition at each concentration was determined to generate an IC50 value for each test compound.

The target in the next experiment is BIR2 domain of XIAP (Homo sapiens (Human), UniProt P98170, C202A/C213G). Put plainly: TR-FRET assay for BIR2: inhibition of binding of the XIAP BIR2 domain to Peptide A (SMAC-derived peptide). As to the method: as §1, §2, §3
BIR2 domain of XIAP, sequence (P98170 other isoform, or with tags, fused parts or gaps, stated change not applied): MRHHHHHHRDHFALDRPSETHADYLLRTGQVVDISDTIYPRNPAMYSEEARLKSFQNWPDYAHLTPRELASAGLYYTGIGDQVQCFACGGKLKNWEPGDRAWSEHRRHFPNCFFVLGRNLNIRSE
The XIAP protein sequence was obtained from the SWISS-PROT protein sequence database and the BIR2 and BIR3 domains were derived from that. The sequence of the BIR2 domain used for the TR-FRET assay is […].
as §4
(TR-FRET usually uses a lanthanide donor and a delayed reading to cut background.)

Where [1] appears, read: 6x His-tagged BIR3 domain (aa 241-356 of XIAP), 10 nM, 20 nM Peptide A, TR-FRET, read-out: Ic50 BIR3.
[2] abbreviates: 6x His-tagged BIR2 domain (aa 124-240 of XIAP), 10 nM, 20 nM Peptide A, TR-FRET, read-out: Ic50 BIR2.

Each structure is given as a SMILES string. Structures can show the parent of a compound that is named as a salt. Where two headings read alike, the source gives them in different places. Some results are limits rather than exact numbers.

BIR3 domain of XIAP, sequence (P98170 other isoform, or with tags, fused parts or gaps): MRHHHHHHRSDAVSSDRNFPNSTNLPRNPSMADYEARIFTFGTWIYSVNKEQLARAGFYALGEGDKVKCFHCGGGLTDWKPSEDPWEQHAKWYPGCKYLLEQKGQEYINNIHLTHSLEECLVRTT

Turning to `CN[C@@H](C)C(=O)N[C@H](C(=O)N1c2ncccc2C[C@H]1CNC(=O)c1ccccc1)C(C)C` [Example 1, N—{(S)-1-[(S)-3-Methyl-2-((S)-2-methylamino-propionylamino)-butyryl]-2,3-dihydro-1H-pyrrolo[2,3-b]pyridin-2-ylmethyl}-benzamide, hydrochloride], the half-maximal inhibitory concentration (IC50) at BIR3 domain of XIAP (setting [1]) was 53 µM; at BIR2 domain of XIAP (setting [2]), 0.888 µM.

For `CN[C@@H](C)C(=O)N[C@H](C(=O)N1c2ncccc2CC1CNC(C)=O)C(C)C` (stereo partly drawn) [Example 2, (S)-N-{(S)-1-[2-(Acetylamino-methyl)-2,3-dihydro-pyrrolo[2,3-b]pyridine-1-carbonyl]-2-methyl-propyl}-2-methylamino-propionamide hydrochloride], the concentration for half-maximal inhibition (IC50) on BIR3 domain of XIAP (read-out: Ic50 BIR3) is > 54.8 µM; at BIR2 domain of XIAP (read-out: Ic50 BIR2) it was 4.67 µM.

For the compound `CNC(=O)NCC1Cc2cccnc2N1C(=O)[C@@H](NC(=O)[C@H](C)NC)C(C)C` (stereo partly drawn) [Example 3, (S)-2-Methylamino-N-((S)-2-methyl-1-{2-[(3-methyl-ureido)-methyl]-2,3-dihydro-pyrrolo[2,3-b]pyridine-1-carbonyl}-propyl)-propionamide hydrochloride], the concentration for half-maximal inhibition (IC50) was > 54.8 µM on BIR3 domain of XIAP (setting [1]) and 4.88 µM at BIR2 domain of XIAP (setting [2]).

For `CN[C@@H](C)C(=O)N[C@H](C(=O)N1c2ncccc2C[C@H]1CNC(=O)Cc1ccccc1)C(C)C` [Example 4, (S)-2-Methylamino-N-{(S)-2-methyl-1-[(S)-2-(phenylacetylamino-methyl)-2,3-dihydro-pyrrolo[2,3-b]pyridine-1-carbonyl]-propyl}-propionamide hydrochloride], the half-maximal inhibitory concentration (IC50) on BIR3 domain of XIAP (setting [1]) was > 54.8 µM; on BIR2 domain of XIAP (setting [2]), 1.57 µM.

Regarding `CN[C@@H](C)C(=O)N[C@H](C(=O)N1c2ncccc2C[C@H]1CNC(=O)OC)C(C)C` [Example 5, {(S)-1-[(S)-3-Methyl-2-((S)-2-methylamino-propionylamino)-butyryl]-2,3-dihydro-1H-pyrrolo[2,3-b]pyridin-2-ylmethyl}-carbamic acid methyl ester hydrochloride], the half-inhibitory concentration (IC50) at BIR3 domain of XIAP (setting [1]) was > 54.8 µM; at BIR2 domain of XIAP (setting [2]) it was 1.67 µM.

On to `CN[C@@H](C)C(=O)N[C@H](C(=O)N1c2ncccc2C[C@H]1CNC(=O)N(C)C)C(C)C` [Example 6, (S)-N-{(S)-1-[(S)-2-(3,3-Dimethyl-ureidomethyl)-2,3-dihydro-pyrrolo[2,3-b]pyridine-1-carbonyl]-2-methyl-propyl}-2-methylamino-propionamide hydrochloride], for which the results for the concentration for half-maximal inhibition (IC50) on BIR3 domain of XIAP (setting [1]) and at BIR2 domain of XIAP (setting [2]) were > 54.8 µM and 6.17 µM, respectively.

Turning to `CN[C@@H](C)C(=O)N[C@H](C(=O)N1c2ncccc2C[C@H]1CNC(=O)Nc1ccccc1)C(C)C` [Example 7, (S)-2-Methylamino-N-((S)-2-methyl-1-{(S)-2-[(3-phenyl-ureido)-methyl]-2,3-dihydro-pyrrolo[2,3-b]pyridine-1-carbonyl}-propyl)-propionamide hydrochloride], the half-maximal inhibitory concentration (IC50) at BIR3 domain of XIAP (setting [1]) was > 54.8 µM; on BIR2 domain of XIAP (setting [2]), 1.54 µM.

`CN[C@@H](C)C(=O)N[C@H](C(=O)N1c2ncccc2C[C@H]1CNC(=O)C(C)c1ccccc1)C(C)C` (stereo partly drawn) [Example 8, (S)-2-Methylamino-N-((S)-2-methyl-1-{(S)-2-[(2-phenyl-propionylamino)-methyl]-2,3-dihydro-pyrrolo[2,3-b]pyridine-1-carbonyl}-propyl)-propionamide hydrochloride]: the concentration for half-maximal inhibition (IC50) was > 54.8 µM on BIR3 domain of XIAP (setting [1]) and 2.56 µM at BIR2 domain of XIAP (setting [2]).

For the compound `CN[C@@H](C)C(=O)N[C@H](C(=O)N1c2ncccc2C[C@H]1CNS(C)(=O)=O)C(C)C` [Example 9, (S)-N-{(S)-1-[(S)-2-(Methanesulfonylamino-methyl)-2,3-dihydro-pyrrolo[2,3-b]pyridine-1-carbonyl]-2-methyl-propyl}-2-methylamino-propionamide hydrochloride], the concentration for half-maximal inhibition (IC50) on BIR3 domain of XIAP (setting [1]) is > 54.8 µM; at BIR2 domain of XIAP (setting [2]) it was 1.24 µM.

Consider `CN[C@@H](C)C(=O)N[C@H](C(=O)N1c2ncccc2C[C@H]1CNS(=O)(=O)c1ccccc1)C(C)C` [Example 10, (S)-N-{(S)-1-[(S)-2-(Benzenesulfonylamino-methyl)-2,3-dihydro-pyrrolo[2,3-b]pyridine-1-carbonyl]-2-methyl-propyl}-2-methylamino-propionamide hydrochloride], for which the values for the IC50 at BIR3 domain of XIAP (setting [1]) and at BIR2 domain of XIAP (setting [2]) were > 54.8 µM and 0.82 µM, respectively.

In the case of `CN[C@@H](C)C(=O)N[C@H](C(=O)N1c2ncccc2C[C@H]1CNC(=O)OCc1ccccc1)C(C)C` [Example 11, {(S)-1-[(S)-3-Methyl-2-((S)-2-methylamino-propionylamino)-butyryl]-2,3-dihydro-1H-pyrrolo[2,3-b]pyridin-2-ylmethyl}-carbamic acid benzyl ester], the IC50 on BIR3 domain of XIAP (setting [1]) is > 54.8 µM; on BIR2 domain of XIAP (setting [2]), 1.05 µM.

In the case of `CN[C@@H](C)C(=O)N[C@H](C(=O)N1c2ncccc2C[C@H]1CNC(=O)Oc1ccccc1)C(C)C` [Example 12, {(S)-1-[(S)-3-Methyl-2-((S)-2-methylamino-propionylamino)-butyryl]-2,3-dihydro-1H-pyrrolo[2,3-b]pyridin-2-ylmethyl}-carbamic acid phenyl ester hydrochloride], the IC50 at BIR3 domain of XIAP was > 54.8 µM; at BIR2 domain of XIAP, 1.62 µM.

As to `CN[C@@H](C)C(=O)N[C@H](C(=O)N1c2ncccc2C[C@H]1CNc1ccccc1)C(C)C` [Example 13, (S)-2-Methylamino-N—[(S)-2-methyl-1-((S)-2-phenylaminomethyl-2,3-dihydro-pyrrolo[2,3-b]pyridine-1-carbonyl)-propyl]-propionamide, hydrochloride], the figures for the half-maximal inhibitory concentration (IC50) at BIR3 domain of XIAP (setting [1]) and at BIR2 domain of XIAP (setting [2]) were 5.34 µM and 0.307 µM, respectively.

On to `CN[C@@H](C)C(=O)N[C@H](C(=O)N1c2ncccc2C[C@H]1CNc1ccc2ccccc2c1)C(C)C` [Example 14, (S)-2-methylamino-N—{(S)-2-methyl-1-[(S)-2-(naphthalen-2-ylaminomethyl)-2,3-dihydro-pyrrolo[2,3-b]pyridine-1-carbonyl]-propyl}-propionamide hydrochloride], for which the 50% inhibitory concentration (IC50) at BIR3 domain of XIAP (setting [1]) turned out to be 3.95 µM; on BIR2 domain of XIAP (setting [2]) it was 0.506 µM.
